From patent publication US7138361B2, “Herbicidal heterocycles” (E. I. du Pont de Nemours and Company, priority 2000, dated 2006)

How the values were obtained:
Format in all cases: in vivo
[1] = test system: Surinam grass (Brachiaria decumbens); assay: Test B postemergence; details: 13 to 15 days
Method in brief: (§1)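 Ratings on a 0 to 100 visual scale (100 complete control) compare treated plants with controls 13 to 15 days after application. Treatments were pre- or postemergence sprays of compound in non-phytotoxic solvent with surfactant.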

wild oat (Avena fatua) = assay: Test B postemergence; details: 13 to 15 days
Method in brief: as §1

[2] = test system: wheat (Triticum aestivum); assay: Test B postemergence; details: 13 to 15 days
Method in brief: as §1

[3] = test system: pigweed (Amaranthus retroflexus); assay: Test B postemergence; details: 13 to 15 days
Method in brief: as §1

[4] = test system: velvetleaf (Abutilon theophrasti); assay: Test B postemergence; details: 13 to 15 days
Method in brief: as §1

[5] = test system: cocklebur (Xanthium strumarium); assay: Test B postemergence; details: 13 to 15 days
Method in brief: as §1

[6] = test system: crabgrass (Digitaria sanguinalis); assay: Test B postemergence; details: 13 to 15 days
Method in brief: as §1

[7] = test system: giant foxtail (Setaria faberii); assay: Test B postemergence; details: 13 to 15 days
Method in brief: as §1

[8] = test system: morning glory (Ipomoea hederacea); assay: Test B postemergence; details: 13 to 15 days
Method in brief: as §1

corn (Zea mays) [9] = assay: Test B postemergence; details: 13 to 15 days
Method in brief: as §1

[10] = test system: barnyardgrass (Echinochloa crus-galli); assay: Test B postemergence; details: 13 to 15 days
Method in brief: as §1

Nightshade = assay: Test C preemergence
[11] = test system: common ragweed (Ambrosia elatior); assay: Test C preemergence; details: for Plant response rating (0 to 100), Ragweed, Common: Rate 250 g/ha, visual evaluation after 12 to 14 days
Method in brief: (§2)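 Formulation: non-phytotoxic solvent mix incl. surfactant. Pre: applied right after planting. Post: 1–4-leaf seedlings. Read: visual 0–100, day 12–14, greenhouse.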

[12] = test system: goosegrass (Eleusine indica); assay: Test C preemergence; details: for Plant response rating (0 to 100), Goosegrass: Rate 250 g/ha, visual evaluation after 12 to 14 days
Method in brief: as §2

Sunflower [13] = assay: Test C preemergence
[14] = test system: velvetleaf (Abutilon theophrasti); assay: Test C preemergence; details: for Plant response rating (0 to 100), Velvetleaf: Rate 250 g/ha, visual evaluation after 12 to 14 days
Method in brief: as §2

[15] = test system: lambsquarters (Chenopodium album); assay: Test C preemergence; details: for Plant response rating (0 to 100), Lambsquarters: Rate 250 g/ha, visual evaluation after 12 to 14 days
Method in brief: as §2

[16] = test system: johnsongrass (Sorghum halepense); assay: Test C preemergence; details: for Plant response rating (0 to 100), Johnsongrass: Rate 250 g/ha, visual evaluation after 12 to 14 days
Method in brief: as §2

[17] = test system: yellow nutsedge (Cyperus esculentus); assay: Test C preemergence; details: for Plant response rating (0 to 100), Nutsedge: Rate 250 g/ha, visual evaluation after 12 to 14 days
Method in brief: as §2

corn (Zea mays) [18] = assay: Test C preemergence; details: for Plant response rating (0 to 100), Corn: Rate 250 g/ha, visual evaluation after 12 to 14 days
Method in brief: as §2

[19] = test system: morningglory (Ipomoea hederacea); assay: Test C preemergence; details: for Plant response rating (0 to 100), Morningglory: Rate 250 g/ha, visual evaluation after 12 to 14 days
Method in brief: as §2

Sunflower [20] = assay: Test C preemergence; details: Rate 250 g/ha, visual evaluation after 12 to 14 days
[21] = Rate 125 g/ha, scale 0 (no effect) to 100 (complete control)
[22] = Rate 500 g/ha, scale 0 to 100, 0 is no effect, 100 is complete control
[23] = Rate 62 g/ha, scale 0 to 100, 0 no effect, 100 complete control
[24] = Rate 125 g/ha, scale 0 to 100, 0 no effect, 100 complete control
[25] = Preemergence, Rate 500 g/ha, scale 0 to 100
[26] = preemergence, Rate 125 g/ha, scale 0 to 100, 0 no effect, 100 complete control

For `CC(C)(C)c1ccn(C2SCN(c3cccc(OC(F)(F)F)c3)C2=O)n1` (centres unmarked) [Compound 30], the “Plant response rating, Surinam grass” value [1, 21] was 0, the “Plant response rating, Surinam grass” value [1, 22] was 20 and the “Plant response rating, Wild Oat” value (wild oat (Avena fatua); [21]) was 0. The “Plant response rating, Wild Oat” value (wild oat (Avena fatua); [22]) was 0, the “Plant response rating, Wheat” value [2, 21] was 0 and the “Plant response rating, Wheat” value [2, 22] was 0. The “Plant response rating, Pigweed” value [3, 21] was 100, the “Plant response rating, Pigweed” value [3, 22] was 100 and the “Plant response rating, Velvetleaf” value [4, 21] was 0. For the same compound, the “Plant response rating, Velvetleaf” value [4, 22] was 0, the “Plant response rating, Cocklebur” value [5, 21] was 70 and the “Plant response rating, Cocklebur” value [5, 22] was 70. The “Plant response rating, Crabgrass” value [6, 21] was 50, the “Plant response rating, Crabgrass” value [6, 22] was 100 and the “Plant response rating, Foxtail, Giant” value [7, 21] was 10. The “Plant response rating, Foxtail, Giant” value [7, 22] was 80, the “Plant response rating, Morningglory” value [8, 21] was 40 and the “Plant response rating, Morningglory” value [8, 22] was 90. The “Plant response rating, Corn” value (corn (Zea mays) [9]; [21]) was 0, the “Plant response rating, Corn” value (corn (Zea mays) [9]; [22]) was 0 and the “Plant response rating, Barnyardgrass” value [10, 21] was 100. For the same compound, the “Plant response rating, Barnyardgrass” value [10, 22] was 100, the “Plant response rating, Nightshade” value (Nightshade; [23]) was 80 and the “Plant response rating, Nightshade” value (Nightshade; [24]) was 90. The “Plant response rating, Nightshade” value (Nightshade; Rate 500 g/ha, scale 0 to 100) was 100, the “Plant response rating, Ragweed, Common” value [11, 25] was 100 and the “Plant response rating, Ragweed, Common” value [11, 23] was 0. For the same compound, the “Plant response rating (0 to 100), Ragweed, Common” value ([11]; preemergence) was 90, the “Plant response rating, Ragweed, Common” value [11, 26] was 90 and the “Plant response rating, Goosegrass” value [12, 25] was 100. The “Plant response rating, Goosegrass” value [12, 23] was 100, the “Plant response rating (0 to 100), Goosegrass” value ([12]; preemergence) was 100 and the “Plant response rating, Goosegrass” value [12, 26] was 100. For the same compound, the “Plant response rating, Sunflower” value (Sunflower [13]; [23]) was 0, the “Plant response rating, Sunflower” value (Sunflower [13]; Rate 500 g/ha, scale 0 to 100) was 100 and the “Plant response rating, Velvetleaf” value [14, 25] was 30. For the same compound, the “Plant response rating, Velvetleaf” value [14, 23] was 0, the “Plant response rating (0 to 100), Velvetleaf” value ([14]; preemergence) was 0 and the “Plant response rating, Velvetleaf” value [14, 26] was 0. The “Plant response rating, Lambsquarters” value [15, 25] was 100, the “Plant response rating, Lambsquarters” value [15, 23] was 100 and the “Plant response rating (0 to 100), Lambsquarters” value ([15]; preemergence) was 100. The “Plant response rating, Lambsquarters” value [15, 26] was 100, the “Plant response rating, Johnsongrass” value [16, 25] was 100 and the “Plant response rating, Johnsongrass” value [16, 23] was 30. The “Plant response rating (0 to 100), Johnsongrass” value ([16]; preemergence) was 90, the “Plant response rating, Johnsongrass” value [16, 26] was 40 and the “Plant response rating, Nutsedge” value [17, 25] was 40. For the same compound, the “Plant response rating, Nutsedge” value [17, 23] was 20, the “Plant response rating (0 to 100), Nutsedge” value ([17]; preemergence) was 40 and the “Plant response rating, Corn” value (corn (Zea mays) [18]; [25]) was 50. The “Plant response rating, Corn” value (corn (Zea mays) [18]; [23]) was 30, the “Plant response rating (0 to 100), Corn” value (corn (Zea mays) [18]; preemergence) was 50 and the “Plant response rating, Corn” value (corn (Zea mays) [18]; [26]) was 40. For the same compound, the “Plant response rating, Morningglory” value [19, 25] was 80, the “Plant response rating, Morningglory” value [19, 23] was 30 and the “Plant response rating (0 to 100), Morningglory” value ([19]; preemergence) was 80. For the same compound, the “Plant response rating, Morningglory” value [19, 26] was 30 and the “Plant response rating (0 to 100), Sunflower” value (Sunflower [20]) was 80.

With `CC(C)c1ccn(C2SCN(c3cccc(OC(F)(F)F)c3)C2=O)n1` (centres unmarked) [Compound 31] the “Plant response rating, Surinam grass” value [1, 21] was 0, the “Plant response rating, Surinam grass” value [1, 22] was 0 and the “Plant response rating, Wild Oat” value (wild oat (Avena fatua); [21]) was 0. For the same compound, the “Plant response rating, Wild Oat” value (wild oat (Avena fatua); [22]) was 0, the “Plant response rating, Wheat” value [2, 21] was 0 and the “Plant response rating, Wheat” value [2, 22] was 0. The “Plant response rating, Pigweed” value [3, 21] was 20, the “Plant response rating, Pigweed” value [3, 22] was 60 and the “Plant response rating, Velvetleaf” value [4, 21] was 0. The “Plant response rating, Velvetleaf” value [4, 22] was 0, the “Plant response rating, Cocklebur” value [5, 21] was 60 and the “Plant response rating, Cocklebur” value [5, 22] was 70. The “Plant response rating, Crabgrass” value [6, 21] was 0, the “Plant response rating, Crabgrass” value [6, 22] was 40 and the “Plant response rating, Foxtail, Giant” value [7, 21] was 0. For the same compound, the “Plant response rating, Foxtail, Giant” value [7, 22] was 20, the “Plant response rating, Morningglory” value [8, 21] was 10 and the “Plant response rating, Morningglory” value [8, 22] was 30. The “Plant response rating, Corn” value (corn (Zea mays) [9]; [21]) was 0, the “Plant response rating, Corn” value (corn (Zea mays) [9]; [22]) was 0 and the “Plant response rating, Barnyardgrass” value [10, 21] was 100. For the same compound, the “Plant response rating, Barnyardgrass” value [10, 22] was 100, the “Plant response rating, Nightshade” value (Nightshade; [23]) was 80 and the “Plant response rating, Nightshade” value (Nightshade; [24]) was 90. The “Plant response rating, Nightshade” value (Nightshade; Rate 500 g/ha, scale 0 to 100) was 100, the “Plant response rating, Ragweed, Common” value [11, 25] was 100 and the “Plant response rating, Ragweed, Common” value [11, 23] was 30. For the same compound, the “Plant response rating (0 to 100), Ragweed, Common” value ([11]; preemergence) was 90, the “Plant response rating, Ragweed, Common” value [11, 26] was 90 and the “Plant response rating, Goosegrass” value [12, 25] was 100. For the same compound, the “Plant response rating, Goosegrass” value [12, 23] was 100, the “Plant response rating (0 to 100), Goosegrass” value ([12]; preemergence) was 100 and the “Plant response rating, Goosegrass” value [12, 26] was 100. The “Plant response rating, Sunflower” value (Sunflower [13]; [23]) was 20, the “Plant response rating, Sunflower” value (Sunflower [13]; Rate 500 g/ha, scale 0 to 100) was 40 and the “Plant response rating, Velvetleaf” value [14, 25] was 30. The “Plant response rating, Velvetleaf” value [14, 23] was 0, the “Plant response rating (0 to 100), Velvetleaf” value ([14]; preemergence) was 30 and the “Plant response rating, Velvetleaf” value [14, 26] was 0. For the same compound, the “Plant response rating, Lambsquarters” value [15, 25] was 100, the “Plant response rating, Lambsquarters” value [15, 23] was 100 and the “Plant response rating (0 to 100), Lambsquarters” value ([15]; preemergence) was 100. The “Plant response rating, Lambsquarters” value [15, 26] was 100, the “Plant response rating, Johnsongrass” value [16, 25] was 100 and the “Plant response rating, Johnsongrass” value [16, 23] was 30. For the same compound, the “Plant response rating (0 to 100), Johnsongrass” value ([16]; preemergence) was 90, the “Plant response rating, Johnsongrass” value [16, 26] was 60 and the “Plant response rating, Nutsedge” value [17, 25] was 90. The “Plant response rating, Nutsedge” value [17, 23] was 40, the “Plant response rating (0 to 100), Nutsedge” value ([17]; preemergence) was 70 and the “Plant response rating, Nutsedge” value [17, 26] was 50. For the same compound, the “Plant response rating, Corn” value (corn (Zea mays) [18]; [25]) was 60, the “Plant response rating, Corn” value (corn (Zea mays) [18]; [23]) was 40 and the “Plant response rating (0 to 100), Corn” value (corn (Zea mays) [18]; preemergence) was 40. The “Plant response rating, Corn” value (corn (Zea mays) [18]; [26]) was 40, the “Plant response rating, Morningglory” value [19, 25] was 50 and the “Plant response rating, Morningglory” value [19, 23] was 30. For the same compound, the “Plant response rating (0 to 100), Morningglory” value ([19]; preemergence) was 40, the “Plant response rating, Morningglory” value [19, 26] was 30 and the “Plant response rating (0 to 100), Sunflower” value (Sunflower [20]) was 40.
